Experimental data taken from patent US20250213536A1, “DETECTING AND TREATING GROWTH HORMONE DEFICIENCY” (Lumos Pharma, Inc., priority 2015, published 2025).
Entries after “also recorded” stand apart in the source; their conditions may differ. Where a name gives a salt, the structure may show the parent alone.

What was measured:
GHD children [1] = assay: Phase IIb therapeutic study in pediatric GH deficiency: height velocity after 6 months of treatment; assay type: in vivo, human; conditions: for Delta Height Velocity, Biological Age (BA) / Delta Height Velocity, Chronological Age (CA): general population of GHD children; for height velocity in the LOW group compared with the EQUAL group, in words: 6 months of treatment; for growth (height velocity) response, GH compared with MK-0677, in words: 6 months
Method: In the Phase IIb study, 24 children were treated with 0.8 mg/kg/d MK-0677. […] This can also be expressed as a height velocity standard deviation (SD) (or standard deviations-also SD) at baseline of 0.4±2.1 and 3.5±2.0 at 6 months. […] Change in height velocity SD for chronological age was 0.4±2.1 for placebo and 3.5±2.0 for treatment with MK-0677 after 6 months at a dose of 0.8 mg/kg/d. Twenty of the 22 placebo-treated children were then treated with standard Growth Hormone (GH) treatment (daily subcutaneous injection of rhGH, 0.043 mg/kg/day). […] Therapeutic Study in Pediatric GH Deficiency: A Phase IIb study was run to determine whether or not MK-0677 could be used to treat pediatric GHD. MK-0677 was compared against placebo and rhGH injections according to the following protocol. Bone age was determined using the atlas matching method of Greulich and Pyle. Protocol: 6 months of once-daily oral sucrose formulation solution. Tables 6A-6E show the height velocity for EQUAL growth potential children treated with either 0.8 mg/kg/daily po or 0.4 mg/kg/daily po MK-0677 compared with rhGH (0.3 mg/kg/week; ˜42 μg/kg/daily sc injection). […] Values are mean (SD). Tables 7A-7C compare the height velocity for low growth potential patients (LOW) with equivalent growth potential compared to rhGH (EQUAL). Values are mean (SD).

[2] = tested on: hypothalamic-pituitary GH axis; assay: MK-0677 challenge test: peak serum GH after a single oral dose of MK-0677; assay type: in vivo, human; conditions: for Peak GH response to MK-0677: baseline; for Peak GH to MK-0677: single dose 0.8 mg/kg
Method: Testing for GH secretion with MK-0677: A single, oral dose of MK-0677 is administered to a patient and sufficient blood samples are taken prior to and after administration (e.g., 15 minutes before and t=0, 30, 60, 90, and 120 minutes after administration) to measure the peak GH secretion. An example of the amount of MK-0677 administered is 0.8 mg/kg. In an aspect, the patient being tested will have fasted overnight (abstinence from all food and drink but water). [table] Subjects will report to the clinic in the morning after an overnight fast from all food and drink except water. A catheter will be inserted approximately 1 hour before the administration of MK 0677. Two baseline measures will be taken a t=−15 minutes and t=0 minutes (time at which subject is administered the dose). Subjects will be given a dose of 0.8 mg/kg MK-0677 as 2-mg tablets to be taken orally. Blood samples will be taken subsequently at t=30, 60, 90, 120 minutes. In addition at t=−15 and 120 minutes, samples will be drawn for a serum chemistry panel. At the conclusion of the test, the catheter will be removed. All blood samples will be analyzed for GH, prolactin, and cortisol by a core clinical laboratory.

GHD children [3] = conditions: cited from earlier work
[4] = Adequate GH Secretion Potential, MK-0677 0.8 mg/kg/d (N = 15)
[5] = Low GH Secretion Potential, MK-0677 0.8 mg/kg/d (N = 9)
[6] = Adequate GH Secretion Potential, GH 0.3 mg/kg/wk (N = 15)
[7] = GH after placebo 0.3 mg/kg/week (n = 20)
[8] = Low GH Secretion Potential, GH 0.3 mg/kg/wk (N = 5)

## CC(C)(N)C(=O)N[C@H](COCc1ccccc1)C(=O)N1CCC2(CC1)CN(S(C)(=O)=O)c1ccccc12 [MK-0677, Ibutamoren mesylate]
GHD children [1]; 0.4 mg/kg/d (n = 22)
  Delta Height Velocity, Biological Age (BA): 2.6 (1.5) standard deviations
  Delta Height Velocity, Chronological Age (CA): 2.6 (1.7) standard deviations
GHD children [1]; 0.8 mg/kg/d (n = 22)
  Delta Height Velocity, Biological Age (BA): 3.3 (1.8) standard deviations
  Delta Height Velocity, Chronological Age (CA): 3.5 (2.0) standard deviations
GHD children [1]
  height velocity in the LOW group compared with the EQUAL group, in words: lower than with the EQUAL group
GHD children [1]; [4]
  Delta height velocity: 3.4 (1.4) cm/year
  Height velocity SD for BA: 3.8 (1.3)
  Height velocity SD for CA: 3.8 (1.7)
GHD children [1]; EQUAL (N = 12), 6-Month MK 0.4 mg/kg/day
  Height Velocity: 6.2 (1.8)
GHD children [1]; EQUAL (N = 14), 6-Month MK 0.8 mg/kg/day
  Height Velocity: 7.6 (1.3)
GHD children [1]; EQUAL patient group (peak GH ≥5 μg/L to MK-0677 and baseline IGF-I >30 μg/L)
  growth (height velocity) response, GH compared with MK-0677, in words: equal to GH treatment; also recorded: does not differ significantly from that to GH; also recorded: equivalent growth response
GHD children [1]; LOW (N = 10), 6-Month MK 0.4 mg/kg/day
  Height Velocity: 5.8 (2.1)
GHD children [1]; LOW (N = 10), 6-Month MK 0.8 mg/kg/day
  Height Velocity: 5.8 (2.2)
GHD children [1]; LOW and EQUAL combined, 6-Month MK 0.4 mg/kg/day (N = 22), mean (SD)
  Height Velocity: 6.0 (1.9)
GHD children [1]; LOW and EQUAL combined, 6-Month MK 0.8 mg/kg/day (N = 24), mean (SD)
  Height Velocity: 6.9 (1.9)
GHD children [1]; LOW growth potential / severely GH deficient patients
  growth (height velocity) response, GH compared with MK-0677, in words: inadequate growth response; also recorded: less responsive
GHD children [1]; [5]
  Delta height velocity: 2.3 (2.0) cm/year
  Height velocity SD for BA: 2.6 (2.4)
  Height velocity SD for CA: 2.9 (2.5)
GHD children [1]; equivalent growth potential, after 6 months of MK-677 0.8 mg/kg (N = 14)
  Height Velocity: 7.6 (1.3) cm/year
GHD children [1]; low growth potential, after 6 months of MK-677 0.8 mg/kg (N = 10)
  Height Velocity: 5.8 (2.2) cm/year
GHD children [1]; patients with adequate GH secretion potential (Table 4B)
  growth response, GH compared with MK-0677, in words: comparable with GH and was not statistically different
[2]; Adequate GH Secretion Potential, group later given Placebo followed by rhGH (N = 15)
  Peak GH response to MK-0677: 39.2 (28.8) μg/L
[2]; Adequate GH Secretion Potential, group later treated with MK-0677 0.8 mg/kg/d (N = 15)
  Peak GH response to MK-0677: 41.3 (27.8) μg/L
[2]; Low GH Secretion Potential, group later given Placebo followed by rhGH (N = 5)
  Peak GH response to MK-0677: 2.9 (0.6) μg/L
[2]; Low GH Secretion Potential, group later treated with MK-0677 0.8 mg/kg/d (N = 9)
  Peak GH response to MK-0677: 3.2 (1.3) μg/L
[2]; equivalent growth potential, Placebo group later switched to rhGH (N = 13)
  Peak GH response to MK-0677: 51.2 (25.3) μg/L
[2]; equivalent growth potential, group later treated with MK-0677 0.8 mg/kg (N = 14)
  Peak GH response to MK-0677: 43.7 (27.1) μg/L
[2]; low growth potential, Placebo group later switched to rhGH (N = 9)
  Peak GH response to MK-0677: 6.7 (5.9) μg/L
[2]; low growth potential, group later treated with MK-0677 0.8 mg/kg (N = 10)
  Peak GH response to MK-0677: 3.6 (1.7) μg/L
[2]; All subjects (73)
  Peak GH to MK-0677: 32 ± 3.5 µg/L
[2]; High Potential (≥5 μg/L), 49 subjects
  Peak GH to MK-0677: 43 ± 30 µg/L
[2]; Low Potential (≤5 μg/L), 24 subjects
  Peak GH to MK-0677: 3.0 ± 1.0 µg/L
GHD children [3]; MK-0677 0.8 mg/kg/d, 24 children, Merck Phase IIb study
  growth rate at 6 months: 6.8±2.0 cm/y
GHD children [3]; MK-0677 0.8 mg/kg/d, after 6 months
  Change in height velocity SD for chronological age: 3.5±2.0
GHD children [3]; MK-0677 0.8 mg/kg/d, baseline to 6 months, 24 children
  change in growth rate: 3.4±2.1 cm/y

## rhGH: recombinant human growth hormone given as daily subcutaneous injection, standard GH therapy
GHD children [1]
  height velocity in the LOW group compared with the EQUAL group, in words: greater in the LOW group than in the EQUAL group
GHD children [1]; [6]
  Delta height velocity: 4.9 (2.9) cm/year
  Height velocity SD for BA: 4.9 (2.6)
  Height velocity SD for CA: 5.1 (2.8)
GHD children [1]; EQUAL (N = 11), 6-Month rhGH
  Height Velocity: 8.8 (1.8)
GHD children [1]; [7]
  Delta Height Velocity, Biological Age (BA): 6.2 (3.4) standard deviations
  Delta Height Velocity, Chronological Age (CA): 7.6 (5.6) standard deviations
GHD children [1]; LOW (N = 9), 6-Month rhGH
  Height Velocity: 14.0 (4.1)
GHD children [1]; LOW and EQUAL combined, 6-Month GH 0.3 mg/kg/week (N = 20), mean (SD)
  Height Velocity: 11.1 (4.0)
GHD children [1]; LOW and EQUAL combined, GH (12-Month): 6 months rhGH after 6 months placebo (N = 20), paired T-test table
  Height Velocity: 11.14 (3.96)
GHD children [1]; LOW growth potential / severely GH deficient patients, listed as GH
  growth (height velocity) response, GH compared with MK-0677, in words: extremely sensitive to GH; also recorded: increase in height velocity
GHD children [1]; [8]
  Delta height velocity: 12.3 (4.4) cm/year
  Height velocity SD for BA: 10.0 (2.2)
  Height velocity SD for CA: 15.1 (5.1)
GHD children [1]; equivalent growth potential, after 6 months of GH ~42 μg/kg/day (N = 11)
  Height Velocity: 8.8 (1.8) cm/year
GHD children [1]; low growth potential, after 6 months of GH ~42 μg/kg/day (N = 9)
  Height Velocity: 14.0 (4.1) cm/year
GHD children [1]; overall patient group, GH 0.3 mg/kg/week sc vs MK-0677 0.8 mg/kg/day oral
  growth (height velocity) response, GH compared with MK-0677, in words: superior to MK-0677
GHD children [1]; patients with low GH secretion potential (Table 3B)
  growth response, GH compared with MK-0677, in words: superior
GHD children [3]; rhGH 0.043 mg/kg/day daily sc, 20 children after 6 months of placebo
  height velocity SD score for chronological age: 7.6±5.6
GHD children [3]; rhGH 0.043 mg/kg/day vs MK-0677 0.8 mg/kg/d
  increase in height velocity SD, GH compared with MK-0677: twice as high
